3 substances from patent US20100273748A1, “ANTIMICROBIAL THERAPY” (priority 2006, published 2010) can be followed below.

Assay [1] has as its system Group B Strep (GBS). The assay is described as follows: Bacterial growth inhibition with or without NaHCO3. It is filed as cell-based. The note with it: 16 uM CRAMP without NaHCO3.
The test system of assay [2] is antigen presentation. The assay is described as follows: Antigen presentation in vitro. The assay is classed as cell-based.
In assay [3] the test system is E. coli. The assay is described as follows: Bacterial growth inhibition with or without NaHCO3. The assay is classed as cell-based.
Assay [4] deals with Staphylococcus aureus. The assay is described as follows: Bacterial growth inhibition (turbidity OD600) with or without carbonate. It is filed as cell-based.
Assay [5] concerns Salmonella. The assay is described as follows: Bacterial growth inhibition with or without NaHCO3. The following applies: 16 uM CRAMP without NaHCO3. The assay is classed as cell-based.
Assay [6] relates to cathelicidin promoter. The assay is described as follows: Cathelicidin (CAMP) promoter luciferase reporter in HaCat keratinocytes. It is filed as cell-based, human. The source says:
Promoter analysis and site directed mutagenesis. […]. Primers were designed to introduce an NheI restriction site at the 5″end and an XhoI restriction site at the 3″end of the amplicon. The amplification product was cloned into the TOPO vector (Invitrogen) and transformed into E. coli TOP10 OneShot competent cells (Invitrogen). After DNA purification using the WizardPLus, SV Miniprep purification system (Promega, Madison, Wis.) the construct was digested with NheI and XhoI and then subcloned into the promoterless pGL3-basic firefly luciferase vector (Promega). […]. The resulting plasmid lacking the VDRE binding site cloned in the pGL3-basic vector was termed pGL-3 1500-VDRE. All resulting constructs were confirmed by sequencing. For transfection HaCat cells were seeded in 24 well plates (BD Biosciences) and used for transfection at 50 to 70% confluence. Cells were transfected with the indicated CAMP reporter plasmids and 0.1 μg of an internal-control Renilla luciferase expression plasmid (pRL-TK; Promega, Madison, Wis.) by using 1.5 μl of transfection reagent Fugene 6 (Roche) according to the manufacturer's instructions. […] Firefly luciferase activity from the CAMP pGL3 reporter vectors and Renilla luciferase activity were measured by the Dual Luciferase Assay system (Promega) in a luminometer (Optocomp I, MGM Instruments, Hamden, Conn.). […]

Assay [7] relates to IL-8. The assay is described as follows: qPCR of IL-8 transcript in cultured keratinocytes. It is filed as cell-based, human. The following applies: Malp-2 (0.1 μg ml^−1) only. As to the method: (§1) Cell culture and stimuli. Human keratinocytes were grown in serum-free EpiLife® cell culture media (Cascade Biologics; Portland, Oreg.) containing 0.06 mM Ca2+ and 1× EpiLife® defined growth supplement (EDGS) at 37° C. under standard tissue culture conditions. Stock cultures were maintained for up to five passages in this media with the addition of 50 U/mL penicillin and 50 μg/mL streptomycin. HaCaT keratinocytes were cultured in DMEM (Sigma, St. Louis, Mo.) with 10% FCS. Cells at 50-70% confluence were stimulated in fresh medium after preincubation with 1,25(OH)2 vitamin D3 (1,25D3; 0.1-100 nM, 4-24 h; Sigma). Alternatively, NHEK were stimulated in the presence of 1,25D3 (0.1-100 nM). […]
(§2) Real-time RT-PCR (qPCR). […] Expression of cathelicidin and GAPDH was analysed by real-time RT-PCR. […] Fold induction relative to the vehicle treated control in in vitro experiments was calculated using the comparative Ct method, where ΔΔCt is ΔCt(stimulant)-ΔCt(vehicle), ΔCt is Ct(gene)-Ct(GAPDH) and Ct is the cycle at which an arbitrary detection threshold is crossed. For quantification of transcript abundance in tissue samples target gene expression was normalized to GAPDH and compared to non-treated or non-injured skin.

Assay [8] relates to cathelicidin. The assay is described as follows: Cathelicidin peptide immunostaining in organotypic epidermal constructs. The assay is classed as cell-based, human. The source says: Organotypic culture. Epiderm™ human skin-like tissue constructs were obtained from MatTek (Ashland, Mass.) and cultured according to manufacturer's instructions. […] Skin constructs were cut after stimulation and transferred to Trizol® (Invitrogen, Carlsbad, Calif.) for RNA extraction or immediately frozen in Tissue-Tek® (Sakura, Torrance, Calif.) for immunostaining.
Immunostaining. After fixation in 2% PFA and subsequent washings in PBS, sections from skin tissue or epidermal constructs were blocked in 3% BSA in PBS for 30 min at RT and stained with anti-cathelicidin LL-37 primary antibody or preimmune serum. After washings in PBS, slides from epidermal constructs were re-probed with a FITC labeled goat anti-chicken antibody. Nuclei were detected with DAPI. After subsequent washings with PBS slides, were mounted in ProLong Anti-Fade reagent (Molecular Probes, Eugene, Oreg.) and evaluated with an Olympus BX41 microscope (Olympus, Melville, N.Y.). Paraffin embedded formalin fixed tissue sections were rehydrated in a series of toluene, ethanol, and PBS. Endogenous peroxidase activity was quenched by 30 min incubation in 0.3% H2O2 in water, and sections microwaved for 4 min in antigen retrieval solution (0.01M citric acid, 0.05M

The test system of assay [9] is CYP27B1. The assay is described as follows: qPCR of CYP27B1 mRNA in cultured keratinocytes. It is filed as cell-based, human. The following applies: 24 hours, TGF 1 μg/ml, TNFα 20 ng/ml, TLR2 ligand Malp-2. On the procedure: as §1, §2
(In general: Real-time PCR tracks product formation cycle by cycle.)

Assay [10] concerns cathelicidin. The assay is described as follows: qPCR of cathelicidin mRNA in cultured keratinocytes. The assay is classed as cell-based, human. As to the method:
Cell culture and stimuli. Human keratinocytes were grown in serum-free EpiLife® cell culture media (Cascade Biologics; Portland, Oreg.) containing 0.06 mM Ca2+ and 1× EpiLife® defined growth supplement (EDGS) at 37° C. under standard tissue culture conditions. Stock cultures were maintained for up to five passages in this media with the addition of 50 U/mL penicillin and 50 μg/mL streptomycin. HaCaT keratinocytes were cultured in DMEM (Sigma, St. Louis, Mo.) with 10% FCS. Cells at 50-70% confluence were stimulated in fresh medium after preincubation with 1,25(OH)2 vitamin D3 (1,25D3; 0.1-100 nM, 4-24 h; Sigma). Alternatively, NHEK were stimulated in the presence of 1,25D3 (0.1-100 nM). Stimuli included TLR2,6 ligands Malp-2 (0.001-0.5 μg/ml; Alexis Biochemicals, Carlsbad, Calif.), FSL-1 (1-2 μg/ml, Invivogen, San Diego, Calif.) and zymosan (50 μg/ml; Invivogen), as well as flagellin (50 ng/ml; Alexis), LPS (1 μg/ml; Sigma), lipoteichoic acid (LTA; 10 μg/ml; Sigma), 19 kDA lipopeptide (10 μg/ml, a kind gift from S. Krutzik, Division of Dermatology, UCLA), CpG DNA (10 μg/ml; Sigma), Ca2+ (1.7 mM), LPS (1 μg/ml; Sigma), TNFα (20 ng/ml; Chemicon Temecula, Calif.) and TGFβ1 (0.1-1 μg/ml; R&D Systems, Minneapolis, Minn.). A TLR2 blocking antibody (αTLR2; clone TL2.1, 5 μg/ml, eBioscience, San Diego, Calif.) was utilized to investigate the role of TLR2 signaling. Furthermore, keratinocytes were pretreated with a vitamin D receptor antagonist (VDR-antagonist ZK159222 Schering AG; 10^-7M) or the CYP inhibitor itraconazole (ITRA; 10^-7M) before stimulation with TGFβ in the presence of 25OH vitamin D3 (25D3, 10 nM, Sigma).
Real-time RT-PCR (qPCR). RNA was extracted from cells, epidermal constructs or tissue using Trizol® and 1 μg RNA was reverse transcribed using iScript® (BioRad, Hercules, Calif.). Expression of cathelicidin and GAPDH was analysed by real-time RT-PCR. Predeveloped Taqman® assay probes (ABI, Foster City, Calif.) were used for the analyses of the expression of CYP24A1 (24-hydroxylase), CYP27B1 (1α-hydroxylase), CD14, CD36, TLR1, TLR2, TLR4, TLR6 and murine CD14. All analyses were performed in triplicate from 2-5 independent experiments in an ABI Prism® 7000 Sequence Detection System. Fold induction relative to the vehicle treated control in in vitro experiments was calculated using the comparative Ct method, where ΔΔCt is ΔCt(stimulant)-ΔCt(vehicle), ΔCt is Ct(gene)-Ct(GAPDH) and Ct is the cycle at which an arbitrary detection threshold is crossed. For quantification of transcript abundance in tissue samples target gene expression was normalized to GAPDH and compared to non-treated or non-injured skin.

For assay [11], the system named is acetylated histone H4. The assay is described as follows: Histone H4 acetylation in keratinocytes (immunofluorescence, Western blot). It is filed as cell-based, human. The following applies: NHEK stimulated with butyrate or TLR ligand. On the procedure: Panel a; Immunofluorescence staining of acetylated histone H4 protein in NHEK treated with HDACi in the presence or absence of 1,25D3. […] Panel b: Western blot of acetylated histone 4 from keratinocytes treated with the HDACi butyrate or TLR agonists. […] Bar=30 μM.
The abundance of acetylated histone was directly measured to confirm the inhibitory effects of butyrate and TSA on HDACs. […] To determine if changes in histone acetylation occur upon stimulation of keratinocytes with TLR ligands NHEK were stimulated with different TLR ligands and histone acetylation was assessed.
On the technique in general: In western blotting, separated proteins are transferred to a membrane and probed.

For assay [12], the system named is C. albicans. The assay is described as follows: Liquid assay, minimum fungicide concentration. It is filed as cell-based, Candida albicans.
Description: Action against the C. albicans was determined in Dixon medium (0.6% Peptone, 4% Malt Extract, 1% Glucose, 0.1% Ox Bile, 1% Tween-80) in sterile 96-well microtiter plates (Corning Inc., Corning, N.Y.) at a final volume of 50 ml. […] Microtiter plates were incubated at 37° C. for 24 h with peptides, then plated on Dixon agar to determine the MFC (minimum fungicide concentration).
Assay [13] deals with enteroinvasive E. coli 029. The assay is described as follows: Radial diffusion assay. The assay is classed as cell-based.
In assay [14] the test system is Group A Streptococcus (NZ131).
Description: Solution killing was done in 10% TSB in 10 mM PB (TSB=30 gm/L Tryptic Soy Broth, Sigma, St Louis Mo.; 20×PB=27.6 g/L NaH2PO4-H2O, 53.65 g/L Na2HPO4-7H2O, pH 7.4). Bacteria in log-phase growth were suspended to 1×10^6 cells/ml, peptide added and incubated at 37° C. for 2 hr. Bacteria were then plated on TSB agar (TSB, Bactoagar 13 g/L, Becton Dickinson, Sparks Md.) for direct colony count and determination of CFU.
Activity against Group A Streptococcus (NZ131) was done only in solution assay as described.
For assay [15], the system named is Staphylococcus aureus mprF. The assay is described as follows: Radial diffusion assay. It is filed as cell-based. As to the method: Sweat collection and processing. Sweat was collected on paper tissues (Kimwipes, Kimberly-Clark, Ga.) from healthy volunteers after exercise. After collection, 20 ml of sweat was centrifuged at 2000 g for 15 min. at 4° C., filtered through a […] (Acrodisc syringe filter, 0.2 mm, low protein binding, Fisher scientific, Tustin, Calif.), and frozen at −80° C. For some experiments sweat was lyophilized to dryness, then suspended in 400 μl of distilled water (DW: cell culture grade, endotoxin free, GibcoBRL, Grand island, NY). For analysis of LL37 processing by sweat, 1.6 nmol of LL-37 synthetic peptide was incubated in 50 ml of sweat for 0, 1, 6, 24 hrs at 37° C. or 4° C. In some experiments proteinase inhibitors including; mixed protease inhibitor cocktail (1tab/10 ml, Roche, Indianapolis, Ind.), […] Bestatin, 10 mg/ml E-64, 10 mg/ml Aprotinin, (Sigma, St Louis, Mo.); 100 mM AEBSF, 100 mM Neutrophil elastase inhibitor (NEI) or 100 mM leukocyte elastase inhibitor (LEI) (Calbiochem, San Diego, Calif.) were added during incubation. After incubation, 2 ml was assayed by radial diffusion assay to determine antibacterial activity. For analysis by HPLC 32 nmoles LL-37 was incubated in 100u1. To control for potential contamination from paper tissues, parallel processing was done on tissues soaked in phosphate-buffered saline (PBS:137 mM NaCl, 2.7 mM KCL, 4.3 mM Na2HPO4-H2O, 1.4 mM KH2PO4, pH 7.4). No antimicrobial activity was detectable in these preparations. Protein concentrations were evaluated by BCA assay (protein assay reagent, Pierce, Rockford, Ill.) or Bradford protein assay (Bio-Rad, Hercules, Calif.) according to manufacture's instructions. Human tissue and blood collection was approved by the UCSD Human Research Protection Program.
Antimicrobial assays. For screening of antimicrobial activity of HPLC fractions, radial diffusion assay was used. Lyophilized HPLC fractions were dissolved in DW (GibcoBRL, Grand Island, N.Y.), and tested against Staphylococcus aureus mprF. Thin plates (1 mm) of 1% agarose in 0.5% tryptone containing approximately 1×10^6 cells/ml of S. aureus mprF were used. 1 mm wells were punched in the plates and […] of samples dissolved in tissue culture grade sterile water were loaded in each well.

Assay [16] has as its system wild-type S. aureus (clinical isolate). The assay is described as follows: Radial diffusion assay. It is filed as cell-based.
The mark [17] stands for this setting: 16 uM CRAMP without 50 mM NaHCO3.

CRAMP: the susceptibility to peptide result was “susceptible even without NaHCO3” in assay [1]; “became susceptible” in [3] (16 uM CRAMP with 50 mM NaHCO3); “resistant” in assay [3] (setting [17]); “became susceptible” in assay [4] (16 uM CRAMP with 50 mM NaHCO3); “resistant” in assay [4] (setting [17]); “susceptible even without NaHCO3” in assay [5]. Also, the “antigen presentation in vitro” value in assay [2] was “inhibits antigen presentation in vitro”. Also, the “change of minimal inhibitory concentration (MIC) by NaHCO3” value in assay [4] (20% TSB, 1 mM NaH2PO4, with or without 50 mM NaHCO3, pH 7.4) was “greatly reduced”.
Turning to Malp-2, the cathelicidin promoter activity entry in assay [6] (Malp-2 0.1 μg/ml in the presence of 1,25D3 (100 nM), construct including the VDRE) was “responsive to Malp-2”; in assay [6] (absence of 1,25D3 or the VDRE) it was “no significant effect”. For the same substance, the IL-8 expression entry in assay [7] was “increased when stimulated with only Malp-2”. Besides, the “cathelicidin peptide response to Malp-2” value in assay [8] (Malp-2 0.1 μg/ml with 1,25D3 (100 nM)) is listed as “did after its addition”; in assay [8] (Malp-2 0.1 μg/ml, absence of 1,25D3), “did not respond to Malp-2 in the absence of 1,25D3”. Besides, in [9], the CYP27B1 expression result is recorded as “could be induced”. Further, the cathelicidin transcript abundance result in assay [10] (Malp-2 (0.1 μg ml^−1) alone) was “has no effect”. In assay [10] (keratinocyte monolayers in high calcium (1.7 mM), no 1,25D3), the “cathelicidin response to Malp-2” value is “did not respond to TLR2,6 activation by Malp-2”. Moreover, in assay [10] (keratinocytes pretreated with 1,25D3 0.1 nM 24 hours, then TLR ligand 24 hours), the “cathelicidin expression in response to TLR ligand” value is listed as “responded to Malp-2”. Besides, in assay [11], the “acetylation of histone H4” value is reported as “also increased histone acetylation”.
On to “SSLLEKGLDGAKKAVGGLGKLGKDAVEDLESVGKGAVHDVKDVLDSV [DCD, dermcidin antimicrobial peptide of human sweat]”, for which the “Liquid Assay, minimal concentration required to kill C. albicans ATCC 14053 (head printed truncated: albicans CC 14053)” value in assay [12] is 7 μm. Also, the “Radial Diffusion Assay, minimal inhibitory concentration (MIC), E. coli (O29))” value in [13] came out at 4 μm. The “Liquid Assay, minimal concentration required to kill GAS (NZ131)” value in assay [14] is 4 μm. Also, the “Radial Diffusion Assay, minimal inhibitory concentration (MIC), S. aureus mprF (head printed truncated: aureus cF)” value in assay [15] turned out to be 4 μm. Besides, the “Radial Diffusion Assay, minimal inhibitory concentration (MIC), S. aureus (wt)” value in assay [16] stood at 4 μm.
